Data on 7 molecules can be found in patent US20140148432A1, “Compounds for the Treatment of Neurological Disorders” (priority 2009, published 2014).

Like-named read-outs stand apart in the source and are kept apart here.

Data set [1] has as its target GluN1/GluN2D subtype of NMDA receptors (Rattus norvegicus, UniProt Q62645). Put plainly: NMDA receptor subunit selectivity, GluN1/GluN2D in Xenopus oocytes. It counts as cell-based. The conditions noted are these: 2 min; 10 μM antagonist with 50 μM glutamate and 30 μM glycine, two min; agonists alone = 100%; read-out: GluN2D % Current Remaining. The procedure: (§1) Stage V and VI oocytes were surgically removed from the ovaries of large, well-fed and healthy Xenopus laevis anesthetized with 3-amino-benzoic acid ethyl ester (3 gm/l). Clusters of isolated oocytes were incubated with 292 U/ml Worthington (Freehold, N.J.) type IV collagenase or 1.3 mg/ml collagenase (Life Technologies, Gaithersburg, Md.; 17018-029) for 2 hr in Ca^2+-free solution comprised of (in mM) 115 NaCl, 2.5 KCl, and 10 HEPES, pH 7.5, with slow agitation to remove the follicular cell layer. Oocytes were then washed in the same solution supplemented with 1.8 mM CaCl2 and maintained in Barth's solution comprised of (in mM): 88 NaCl, 1 KCl, 2.4 NaHCO3, 10 HEPES, 0.82 MgSO4, 0.33 Ca(NO3)2, and 0.91 CaCl2 and supplemented with 100 μg/ml gentamycin, 10 μg/ml streptomycin, and 10 μg/ml penicillin. Oocytes were manually defolliculated and injected within 24 hrs of isolation with 3-5 ng of GluN1 subunit cRNA and 7-10 ng of GluN2 cRNA subunit in a 50 nl volume, and incubated in Barth's solution at 18° C. for 2-7 d. Glass injection pipettes had tip sizes ranging from 10-20 microns, and were backfilled with mineral oil. cRNA was synthesized from linearized template cDNA for rat glutamate receptor subunits according to manufacturer specifications (Ambion).
(§2) Two electrode voltage-clamp recordings were made 2-7 days post-injection. Oocytes were placed in a dual-track plexiglass recording chamber with a single perfusion line that splits in a Y-configuration to perfuse two oocytes. Dual recordings were made at room temperature (23° C.) using two Warner 00725B two-electrode voltage clamp amplifiers, arranged as recommended by the manufacturer. Glass microelectrodes (1-10 Megaohms) were filled with 300 mM KCl (voltage electrode) or 3 M KCl (current electrode). The bath clamps communicated across silver chloride wires placed into each side of the recording chamber, both of which were assumed to be at a reference potential of 0 mV. Oocytes were perfused with a solution comprised of (in mM) 90 NaCl, 1 KCl, 10 HEPES, […] and 0.5 BaCl2; pH was adjusted by addition of 1-3 M NaOH or HCl. Oocytes were recorded under voltage clamp at −40 mV. Final concentrations for glutamate and glycine were 50 μM and 30 μM, respectively. Concentration-response curves for experimental compounds were obtained by applying in successive fashion maximal glutamate/glycine, followed by glutamate/glycine plus variable concentrations of experimental compounds. Dose response curves consisting of 4 to 8 concentrations were obtained in this manner. The baseline leak current at −40 mV was measured before and after recording, and the full recording linearly corrected for any change in leak current. The level of inhibition by applied experimental compounds was expressed as a percent of the initial glutamate response, and averaged together across oocytes from multiple experiments. Results were pooled, and the average percent responses at antagonist concentrations were fit by the equation,
(§3) GluN1/GluN2A and GluN1/GluN2D subtype of NMDA receptors were expressed in Xenopus laevis as described in Example 13. Here, a 10 μM concentration of the antagonist was perfused with 50 μM glutamate and 30 μM glycine onto the oocyte for two min and the remaining current in the presence of the antagonist was compared to the maximal current obtained with 50 μM glutamate and 30 μM glycine alone (defined as 100%).

The target of data set [2] is GluN1/GluN2B receptors (Homo sapiens, UniProt Q05586+Q13224). Kind of data set: IC50 of GluN1/GluN2B receptors expressed in Xenopus oocytes (two electrode voltage-clamp), human. It counts as cell-based. The conditions noted are these: for Human pH Boost Ratio (IC50 pH 7.6/IC50 pH 6.9): IC50 at pH 7.6 divided by IC50 at pH 6.9; for IC50: 30 μM glycine. Background: Two-electrode voltage clamp holds a large cell at a set potential and records current.

Data set [3] has as its target GluN1/GluN2A subtype of NMDA receptors (Rattus norvegicus, UniProt Q00959). Put plainly: NMDA receptor subunit selectivity, GluN1/GluN2A in Xenopus oocytes. The conditions noted are these: 2 min; 10 μM antagonist with 50 μM glutamate and 30 μM glycine, two min; agonists alone = 100%; read-out: GluN2A % Current Remaining. It counts as cell-based. The procedure:
as §1, §2, §3

In data set [4] the target is T1, human ether-a-go-go potassium channel (hERG) expressed in HEK293 cells (Homo sapiens, UniProt Q12809).
T1 construct: expressed in transfected cells; host or cells: HEK293 cells
Put plainly: hERG binding, displacement of [3H]-astemizole. The conditions noted are these: 10 μM test compound, 1.5 nM [3H]-astemizole, duplicate. As for the experimental part: (§4) Binding to the human ether-a-go-go potassium channel (hERG) expressed in HEK293 cells by displacement of 1.5 nM [3H]-astemizole. Each result represents the average of displacement binding experiments done in duplicate at 10 uM of the test compound. Percent displacement of 0.25 nM [3H]-prazosin from Wistar rat brain membranes. Each result represents the average of displacement binding experiments done in duplicate at 3 μM of the test compound.
Background: hERG is a cardiac potassium channel; its block is linked to QT prolongation.

For data set [5], the target named is GluN1/GluN2B receptors (Rattus norvegicus, UniProt P35439+Q00960). Put plainly: IC50 of GluN1/GluN2B receptors expressed in Xenopus oocytes (two electrode voltage-clamp), rat. It counts as cell-based. The conditions noted are these: pH 7.4, 50 μM glutamate, 30 μM glycine. The procedure:
as §1, §2
Percent Response=(100−minimum)/(1+([conc]/IC50)^nH)+minimum
where minimum is the residual percent response in saturating concentration of the experimental compounds, IC50 is the concentration of antagonist that causes half of the achievable inhibition, and nH is a slope factor describing steepness of the inhibition curve. Minimum was constrained to be greater than or equal to 0.
Recordings were made at pH 6.9, pH 7.4, and pH 7.6. The pH Boost ratio calculated by dividing the IC50 measured at pH 7.6 by the IC50 measured at pH 6.9.

Data set [6] relates to α1-Adrenergic. Kind of data set: α1-Adrenergic binding, displacement of [3H]-prazosin from brain membranes. The conditions noted are these: 3 μM test compound, 0.25 nM [3H]-prazosin, Wistar rat brain membranes, duplicate. The procedure: as §4
(In general: In a radioligand displacement assay an active substance lowers the binding of a labelled ligand.)

The mark [7] stands for this setting: pH 6.9, 50 μM glutamate, read-out: Human pH 6.9 IC50.
The mark [8] stands for this setting: pH 7.4, 50 μM glutamate, read-out: Human pH 7.4 IC50.

GluN1/GluN2B receptors (Homo sapiens, UniProt Q05586+Q13224), sequence (Q13224 27-1484, other chains not shown): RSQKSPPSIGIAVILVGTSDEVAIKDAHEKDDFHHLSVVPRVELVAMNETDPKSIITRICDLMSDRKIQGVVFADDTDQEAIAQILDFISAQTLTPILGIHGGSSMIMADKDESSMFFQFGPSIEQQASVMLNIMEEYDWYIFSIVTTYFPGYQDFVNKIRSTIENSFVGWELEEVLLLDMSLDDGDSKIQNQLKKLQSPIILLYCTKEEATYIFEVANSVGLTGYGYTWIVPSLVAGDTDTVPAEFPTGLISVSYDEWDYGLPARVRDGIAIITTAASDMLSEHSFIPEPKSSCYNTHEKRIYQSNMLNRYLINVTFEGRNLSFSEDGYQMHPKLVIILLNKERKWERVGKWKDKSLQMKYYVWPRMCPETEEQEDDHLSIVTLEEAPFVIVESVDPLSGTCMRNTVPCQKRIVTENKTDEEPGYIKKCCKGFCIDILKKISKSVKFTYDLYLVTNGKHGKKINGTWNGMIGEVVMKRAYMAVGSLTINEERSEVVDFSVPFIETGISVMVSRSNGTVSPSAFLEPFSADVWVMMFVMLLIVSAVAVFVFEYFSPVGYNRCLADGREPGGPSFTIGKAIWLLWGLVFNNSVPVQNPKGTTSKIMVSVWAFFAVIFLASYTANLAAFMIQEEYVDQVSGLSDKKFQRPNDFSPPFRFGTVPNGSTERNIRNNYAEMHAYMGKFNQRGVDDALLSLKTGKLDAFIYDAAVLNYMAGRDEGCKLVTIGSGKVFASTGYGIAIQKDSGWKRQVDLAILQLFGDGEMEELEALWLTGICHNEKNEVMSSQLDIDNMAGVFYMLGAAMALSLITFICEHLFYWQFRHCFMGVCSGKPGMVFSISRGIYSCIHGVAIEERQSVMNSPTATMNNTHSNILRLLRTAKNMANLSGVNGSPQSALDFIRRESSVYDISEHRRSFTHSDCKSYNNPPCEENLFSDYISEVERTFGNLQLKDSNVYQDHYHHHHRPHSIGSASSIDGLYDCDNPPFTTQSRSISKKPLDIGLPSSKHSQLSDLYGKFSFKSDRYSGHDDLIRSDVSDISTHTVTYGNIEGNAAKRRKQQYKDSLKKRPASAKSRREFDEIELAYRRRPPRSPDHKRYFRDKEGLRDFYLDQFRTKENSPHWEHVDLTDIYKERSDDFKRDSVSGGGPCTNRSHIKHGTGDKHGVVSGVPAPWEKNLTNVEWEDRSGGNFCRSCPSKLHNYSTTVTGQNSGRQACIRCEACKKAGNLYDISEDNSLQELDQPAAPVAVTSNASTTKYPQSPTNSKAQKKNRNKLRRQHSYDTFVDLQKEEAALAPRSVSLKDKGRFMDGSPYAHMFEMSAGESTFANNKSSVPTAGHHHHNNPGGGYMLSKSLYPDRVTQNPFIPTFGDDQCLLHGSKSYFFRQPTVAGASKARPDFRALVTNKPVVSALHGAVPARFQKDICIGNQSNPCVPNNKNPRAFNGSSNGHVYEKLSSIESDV
T1 sequence (Q12809 whole entry): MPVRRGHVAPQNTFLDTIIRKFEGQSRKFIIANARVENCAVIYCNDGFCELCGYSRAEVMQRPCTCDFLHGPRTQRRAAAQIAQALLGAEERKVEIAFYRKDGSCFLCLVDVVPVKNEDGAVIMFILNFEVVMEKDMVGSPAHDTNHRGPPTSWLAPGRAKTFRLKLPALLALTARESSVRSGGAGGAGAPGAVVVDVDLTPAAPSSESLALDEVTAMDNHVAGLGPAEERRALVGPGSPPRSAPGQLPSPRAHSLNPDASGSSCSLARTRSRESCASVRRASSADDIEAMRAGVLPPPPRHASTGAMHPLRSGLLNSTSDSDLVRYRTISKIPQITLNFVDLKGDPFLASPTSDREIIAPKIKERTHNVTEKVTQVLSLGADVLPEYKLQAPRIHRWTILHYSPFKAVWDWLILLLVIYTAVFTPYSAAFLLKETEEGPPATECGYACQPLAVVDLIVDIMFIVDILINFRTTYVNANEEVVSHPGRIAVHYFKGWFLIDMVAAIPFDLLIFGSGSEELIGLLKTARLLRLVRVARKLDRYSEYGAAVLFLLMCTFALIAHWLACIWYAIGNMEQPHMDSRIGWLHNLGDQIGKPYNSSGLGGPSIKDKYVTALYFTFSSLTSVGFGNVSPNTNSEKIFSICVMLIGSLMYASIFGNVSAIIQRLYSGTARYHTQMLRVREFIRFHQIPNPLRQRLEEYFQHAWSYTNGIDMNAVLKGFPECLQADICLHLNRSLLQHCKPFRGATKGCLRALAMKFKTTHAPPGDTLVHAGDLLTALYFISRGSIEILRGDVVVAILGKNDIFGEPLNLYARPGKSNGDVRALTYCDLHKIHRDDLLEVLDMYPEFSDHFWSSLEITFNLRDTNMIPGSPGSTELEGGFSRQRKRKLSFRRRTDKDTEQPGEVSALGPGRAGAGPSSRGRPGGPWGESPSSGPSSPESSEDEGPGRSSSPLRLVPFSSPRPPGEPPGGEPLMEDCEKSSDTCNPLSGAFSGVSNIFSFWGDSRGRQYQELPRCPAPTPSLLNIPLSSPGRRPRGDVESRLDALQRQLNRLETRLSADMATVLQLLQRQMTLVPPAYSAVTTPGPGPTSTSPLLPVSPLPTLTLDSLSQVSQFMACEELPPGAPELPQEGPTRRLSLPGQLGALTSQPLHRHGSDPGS
GluN1/GluN2A subtype of NMDA receptors, sequence (Q00959 23-1464, other chains not shown): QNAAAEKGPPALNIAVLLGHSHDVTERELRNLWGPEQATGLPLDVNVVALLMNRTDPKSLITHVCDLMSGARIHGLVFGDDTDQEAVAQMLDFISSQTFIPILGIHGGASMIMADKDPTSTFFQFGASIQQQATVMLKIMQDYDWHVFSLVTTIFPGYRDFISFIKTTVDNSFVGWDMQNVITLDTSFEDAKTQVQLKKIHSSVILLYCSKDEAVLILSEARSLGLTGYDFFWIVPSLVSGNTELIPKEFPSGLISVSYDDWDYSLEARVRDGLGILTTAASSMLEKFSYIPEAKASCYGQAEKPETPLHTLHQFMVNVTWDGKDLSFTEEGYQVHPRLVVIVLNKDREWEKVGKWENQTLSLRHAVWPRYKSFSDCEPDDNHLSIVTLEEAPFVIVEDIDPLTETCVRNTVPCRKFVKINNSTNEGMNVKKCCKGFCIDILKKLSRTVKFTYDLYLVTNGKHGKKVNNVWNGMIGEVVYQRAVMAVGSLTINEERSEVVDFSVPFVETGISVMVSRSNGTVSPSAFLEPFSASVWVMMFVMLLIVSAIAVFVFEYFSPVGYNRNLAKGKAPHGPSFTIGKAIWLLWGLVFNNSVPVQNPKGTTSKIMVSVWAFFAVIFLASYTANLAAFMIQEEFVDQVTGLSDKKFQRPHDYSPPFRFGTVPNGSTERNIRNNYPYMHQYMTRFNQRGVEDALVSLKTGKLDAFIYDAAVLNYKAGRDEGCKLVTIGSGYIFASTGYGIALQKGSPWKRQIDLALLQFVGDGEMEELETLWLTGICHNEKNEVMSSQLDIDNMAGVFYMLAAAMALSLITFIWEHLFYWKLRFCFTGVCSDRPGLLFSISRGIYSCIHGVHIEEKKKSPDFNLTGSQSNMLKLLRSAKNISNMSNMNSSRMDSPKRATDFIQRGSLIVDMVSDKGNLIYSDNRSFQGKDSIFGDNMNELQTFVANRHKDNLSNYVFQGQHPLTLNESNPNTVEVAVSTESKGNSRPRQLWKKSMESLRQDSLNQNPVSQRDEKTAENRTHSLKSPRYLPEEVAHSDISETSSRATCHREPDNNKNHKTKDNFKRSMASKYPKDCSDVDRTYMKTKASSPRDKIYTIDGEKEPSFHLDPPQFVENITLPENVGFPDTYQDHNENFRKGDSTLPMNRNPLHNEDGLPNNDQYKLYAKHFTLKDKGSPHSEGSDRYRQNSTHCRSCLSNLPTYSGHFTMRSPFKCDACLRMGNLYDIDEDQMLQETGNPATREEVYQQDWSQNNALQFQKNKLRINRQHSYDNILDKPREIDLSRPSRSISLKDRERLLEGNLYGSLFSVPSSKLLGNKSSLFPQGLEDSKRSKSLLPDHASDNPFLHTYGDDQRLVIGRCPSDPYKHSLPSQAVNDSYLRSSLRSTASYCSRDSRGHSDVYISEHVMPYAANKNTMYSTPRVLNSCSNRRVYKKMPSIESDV

The IC50 is the concentration that inhibits the measured activity by half. On to `O=C1CCc2cc(OCC3CCN(C(=O)Nc4ccc(Cl)cc4)CC3)ccc2N1` [Compound 13, N-(4-chlorophenyl)-4-(((2-oxo-1,2,3,4-tetrahydroquinolin-6-yl)oxy)methyl)piperidine-1-carboxamide], for which the remaining activity at 10 µM in data set [1] is 106%; in data set [3], 105%. Also, the “Human pH Boost Ratio (IC50 pH 7.6/IC50 pH 6.9)” value (from here on “Human pH Boost Ratio”) in data set [2] is on record as 2.0. For the same molecule, the IC50 came to 283 nM in data set [2] (setting [7]), 468 nM in data set [2] (setting [8]) and 339 nM in data set [5]. Also, in data set [4], the “hERG Binding % Displacement @ 10 μM” value was found to be 37%. In data set [6], the “α1-Adrenergic binding % Displacement @ 3 μM” value is reported as 16%.

In the case of `O=C(Nc1ccc(Cl)c(Cl)c1)N1CCC(COc2ccc(O)cc2)CC1` [Compound 35, N-(3,4-dichlorophenyl)-4-((4-hydroxyphenoxy)methyl)-piperidine-1-carboxamide], the remaining activity at 10 µM in data set [1] and in data set [3] was 104% in each case. The “Human pH Boost Ratio” value in data set [2] amounted to 1.2. The IC50 in data set [2] (setting [7]) came out at 764 nM.

On to `O=C1CCc2cc(OCC3CN(C(=O)n4ccnc4)C3)ccc2N1` [Compound 26, 6-((1-(1H-imidazole-1-carbonyl)azetidin-3-yl)methoxy)-3,4-dihydroquinolin-2(1H)-one], for which the remaining activity at 10 µM came to 94.9% in data set [1] and 102% in data set [3]. The figures for the IC50 in data set [2] (setting [7]), in data set [2] (setting [8]) and in data set [5] were greater than 30000 nM, greater than 10000 nM and 6100 nM, respectively. Moreover, in data set [4], the “hERG Binding % Displacement @ 10 μM” value is less than 1%. Further, in data set [6], the “α1-Adrenergic binding % Displacement @ 3 μM” value was less than 1%.

Consider `O=C1CCc2cc(OCC3CN(C(=O)NCc4ccc(Cl)cc4)C3)ccc2N1` [Compound 28, N-(4-chlorobenzyl)-3-(((2-oxo-1,2,3,4-tetrahydroquinolin-6-yl)oxy)methyl)azetidine-1-carboxamide], for which the figures for the remaining activity at 10 µM in data set [1] and in data set [3] were 94.5% and 102%, respectively. Further, the “Human pH Boost Ratio” value in data set [2] amounted to 3.5. In addition, the figures for the IC50 in data set [2] (setting [7]), in data set [2] (setting [8]) and in data set [5] were 2300 nM, 3500 nM and 4900 nM, respectively. Further, the “hERG Binding % Displacement @ 10 μM” value in data set [4] is given as 27%. Moreover, the “α1-Adrenergic binding % Displacement @ 3 μM” value in data set [6] is 12%.

For `O=C1CCc2cc(OCC3CCN(C(=O)Nc4ccc(C(F)(F)F)cc4)CC3)ccc2N1` [Compound 17, 4-(((2-oxo-1,2,3,4-tetrahydroquinolin-6-yl)oxy)methyl)-N-(4-(trifluoromethyl)phenyl)piperidine-1-carboxamide], the remaining activity at 10 µM in data set [1] stood at 93.9%; in data set [3], 98.7%. Also, in data set [2], the “Human pH Boost Ratio” value is listed as 2.0. For the same molecule, the IC50 in data set [2] (setting [7]) came out at 237 nM; in data set [2] (setting [8]) it was 517 nM; in data set [5] it was 359 nM. Further, the “hERG Binding % Displacement @ 10 μM” value in data set [4] is reported as 75%. Further, in data set [6], the “α1-Adrenergic binding % Displacement @ 3 μM” value is listed as 7%.

Regarding `O=C1CCc2cc(OCC3CCN(C(=O)OCc4ccc(Cl)cc4)CC3)ccc2N1` [Compound 11, 4-chlorobenzyl 4-(((2-oxo-1,2,3,4-tetrahydroquinolin-6-yl)oxy)methyl)piperidine-1-carboxylate], the remaining activity at 10 µM came out at 104% in data set [1] and 111% in data set [3]. Moreover, the “Human pH Boost Ratio” value in data set [2] is given as 1.4. Also, the IC50 in data set [2] (setting [7]) was found to be 589 nM; in data set [2] (setting [8]) it was 868 nM; in data set [5] it was 837 nM. Further, the “hERG Binding % Displacement @ 10 μM” value in data set [4] is given as 56%. Also, the “α1-Adrenergic binding % Displacement @ 3 μM” value in data set [6] came out at 16%.

Regarding `O=C(Nc1ccc(Cl)cc1)N1CCC(COc2ccc(O)cc2)CC1` [Compound 33], the remaining activity at 10 µM was determined as 104% in data set [1] and 111% in data set [3]. For the same molecule, the “Human pH Boost Ratio” value in data set [2] was found to be 1.8. In addition, the IC50 in data set [2] (setting [7]) was 740 nM.
